Laboratory results taken from patent US12310944B2 (priority 2019, dated 2025).
Where two headings read alike, the source gives them in different places.

Key:
[1] = molecular target: T1, eqBuChE (BuChE, E.C.3.1.1.8, selected from horse serum) (Equus caballus, UniProt P81908); assay: Cholinesterase inhibitory activity (DTNB/BTC), eqBuChE; format: biochemical
T1 construct: BuChE (E.C.3.1.1.8, selected from horse serum); purchased Sigma; host or cells: horse serum
Description: Determination of Cholinesterase Inhibitory Activity:
Drugs and reagents: Test compounds, AChE (E.C.3.1.1.7, Type VI-S, selected from electric eel), BuChE (E.C.3.1.1.8, selected from horse serum), 5,5′-dithiobis(2-nitrobenzoic acid) (DTNB), acetylthiocholine (ATC) iodide and butyrylthiocholine (BTC) iodide were all purchased from Sigma; the positive control tacrine hydrochloride (9-amino-1,2,3,4-tetrahydroacridine hydrochloride hydrate) was purchased from BioTrend.
(§1) Instrument: THERMO Varioskan Flash full-wavelength multifunctional microplate reader.
(1) Formulation of buffer: 13.6 g of potassium dihydrogen phosphate was dissolved in 1 L of water, and pH was adjusted with potassium hydroxide to reach pH=8±0.1. The solution was stored at 4° C. for later use.
(2) Formulation of 0.01 M DTNB solution: 0.396 g of DTNB and 0.15 g of sodium bicarbonate were dissolved in 100 mL of water to prepare a 0.01 M DTNB solution, which was stored at −30° C. for later use.
(3) Formulation of 0.075 M ATC and BTC solutions: 0.217 g of ATC was dissolved in 10 mL of water to prepare a 0.075 M ATC solution, which was stored at −30° C. for later use; 0.237 g of BTC was dissolved in 10 mL of water to prepare a 0.075 M BTC solution, which was stored at −30° C. for later use.
(4) Formulation of AChE and BuChE solutions: 5,000 units of AChE were dissolved in 1 mL of 1% gel solution, and then diluted to 100 mL with water to prepare a AChE solution with a concentration of 5 units/mL, which was stored at −30° C. for later use; 5,000 units of BuChE were dissolved in 1 mL of 1% gel solution, and then diluted to 100 mL with water to prepare a BuChE solution with a concentration of 5 units/mL, which was stored at −30° C. for later use.
(5) Formulation of test substance solution: The test compound was dissolved in ethanol to obtain a solution with a concentration of 10^−3 M (ethanol would not affect the test results), and then diluted with water to prepare solutions with concentrations of […], 10^−5, 10^−6, 10^−7, 10^−8, 10^−9, and 10^−10 M, respectively.
Before the start of the experiment, all the solutions as used were warmed to room temperature, and the AChE and BuChE solutions were diluted 1-fold with water to prepare an enzyme solution with a concentration of 2.5 units/mL. The background UV absorbance was measured with a blank buffer (3 mL) as a subtraction value. Firstly, 100 μL of test compound solution, 100 μL of DTNB solution, and 100 μL of enzyme solution were added to 3 mL of buffer. After adding 20 μL of ATC or BTC solution to trigger the reaction, the time was recorded immediately and the test solution was mixted quickly and uniformly at the same time. After 2 minutes, the UV absorbance was measured at a wavelength of […]. The blank control group was measured with an equal volume of water instead of the test substance solution. All tests were performed three times in parallel. The UV absorption value of the blank control group was taken as 100%, the absorbance (OD value) of the test compound at each concentration was recorded, and GraphPad Prism™ (GraphPad Software, San Diego, CA, USA) software was used to analyze the results in a non-linear regression analysis model to calculate the corresponding IC50 values, as shown in Table 1.

hBuChE = hBuChE (Homo sapiens, UniProt P06276); assay: Cholinesterase inhibitory activity (DTNB/BTC), hBuChE; format: biochemical; conditions: mean ± SEM
PC-12 neural cell line = assay: Toxicity test in PC-12 nerve cell (MTT); format: cell-based; conditions: PC-12 cells; for SR(%) cell survival rate, 20 μM: 20 μM compound for 24 h; for SR(%) cell survival rate, 50 μM: 50 μM compound for 24 h
Protocol: Toxicity Test in PC-12 Nerve Cell:
Drugs and reagents: Test compounds, DMEM medium (01-050-1A) purchased from Biological Industries, FBS fetal bovine serum (04-001-1A) purchased from Biological Industries, MTT thiazolyl blue reagent (KGT525500) purchased from KeyGEN BioTECH.
as §1
About 3×10^3 PC-12 cells were evenly mixed in 0.1 mL of DMEM medium containing 10% FBS, and plated on a 96-well bottom plate, and incubated overnight at 37° C. in an environment containing 5% CO2. The 20 μM and 50 μM compounds diluted in 0.1 mL of DMEM medium were treated on the cells for 24 hours. Then MTT reagent was added to the well plate, and the plate was incubated at 37° C. for 2 to 4 hours. The color reaction was measured at 492 nm using a spectrophotometer (Thermo, multiskan FC).

[2] = read-out: IC50 (nM) ± SEM eqBuChE
[3] = eqBuChE, mean ± SEM, three parallel tests

T1 sequence (P81908 whole entry): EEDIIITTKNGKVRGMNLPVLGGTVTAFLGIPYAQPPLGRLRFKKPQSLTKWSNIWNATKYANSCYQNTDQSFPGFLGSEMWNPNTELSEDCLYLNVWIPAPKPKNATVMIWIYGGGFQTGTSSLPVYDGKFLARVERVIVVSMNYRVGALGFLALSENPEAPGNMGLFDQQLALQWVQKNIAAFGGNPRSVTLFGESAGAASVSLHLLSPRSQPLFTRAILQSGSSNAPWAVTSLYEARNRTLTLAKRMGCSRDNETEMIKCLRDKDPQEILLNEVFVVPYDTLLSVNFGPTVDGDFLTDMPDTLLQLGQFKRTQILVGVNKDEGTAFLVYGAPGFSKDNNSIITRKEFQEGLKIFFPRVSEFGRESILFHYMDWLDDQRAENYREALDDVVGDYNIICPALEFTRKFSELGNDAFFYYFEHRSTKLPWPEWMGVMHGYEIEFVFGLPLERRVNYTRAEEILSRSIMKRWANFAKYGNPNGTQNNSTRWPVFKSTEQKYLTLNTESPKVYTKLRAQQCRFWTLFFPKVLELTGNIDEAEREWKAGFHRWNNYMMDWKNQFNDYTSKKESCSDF

| Compound | IC50 [1, 2] | IC50 (hBuChE) | SR(%) cell survival rate, 20 μM (PC-12 neural cell line) | SR(%) cell survival rate, 50 μM (PC-12 neural cell line) | IC50 [1, 3] | inhibition at 10 µM ([1]; read-out: inhibition rate of the compound on the target at a concentration of 10 μM (eqBuChE)) |
| --- | --- | --- | --- | --- | --- | --- |
| CCN(CC)Cc1ccccc1CNC(=O)c1cccc(NC(=O)c2ccc(I)cc2)c1 [Compound 21, 3-(4-iodobenzamido)-N-(2-((diethylamino)methyl)benzyl)benzamide] | 1.59 ± 0.26 nM | 3.33 ± 1.62 nM | 94.40% | 89.63% | – | – |
| CCN(CC)Cc1ccccc1NC(=O)c1cccc(NC(=O)c2cccs2)c1 [Compound 3, N-(3-((2-((diethylamino)methyl)phenyl)carbamoyl)phenyl)thiophene-2-carboxamide] | – | – | 95.23% | 89.64% | 481 ± 110 nM | – |
| CCN(CC)Cc1ccccc1CNC(=O)c1cccc(NC(=O)c2nccs2)c1 [Compound 8, N-(3-((2-((diethylamino)methyl)benzyl)carbamoyl)phenyl)-thiazole-2-carboxamide] | 0.75 ± 0.14 nM | 1.88 ± 0.52 nM | 93.57% | 89.42% | – | – |
| CCN(CC)Cc1ccccc1CNC(=O)c1cccc(NC(=O)c2ccc(O)cc2)c1 [Compound 12, N-(2-((diethylamino)methyl)benzyl)-3-(4-hydroxybenzamido)benzamide] | 0.79 ± 0.19 nM | 2.45 ± 0.37 nM | 91.46% | 89.64% | – | – |
| CCN(CC)Cc1ccccc1CNC(=O)c1cccc(NC(=O)c2ncc[nH]2)c1 [Compound 9, N-(3-((2-((diethylamino)methyl)benzyl)carbamoyl)phenyl)-imidazole-2-carboxamide] | 0.52 ± 0.1 nM | 1.91 ± 0.24 nM | 80.36% | 70.74% | – | – |
| CCN(CC)Cc1ccccc1CNC(=O)c1cccc(NC(=O)c2ccccc2OC)c1 [Compound 28] | 5.28 ± 1.21 nM | 20 ± 2.06 nM | 95.42% | 85.46% | – | – |
| CCN(CC)Cc1ccccc1CNC(=O)c1cccc(NC(=O)c2ccc(Cl)cc2)c1 [Compound 19, 3-(4-chlorobenzamido)-N-(2-((diethylamino)methyl)benzyl)benzamide] | 0.34 ± 0.21 nM | 0.83 ± 0.39 nM | 90.43% | 79.24% | – | – |
| CCN(CC)Cc1ccccc1CNC(=O)c1cccc(NC(=O)c2ccc(N)cc2)c1 [Compound 33] | 1.56 ± 0.67 nM | 7.99 ± 2.53 nM | 90.21% | 74.62% | – | – |
| CCN(CC)Cc1ccccc1CNC(=O)c1cccc(NC(=O)c2ccc(F)cc2)c1 [Compound 15, N-(2-((diethylamino)methyl)benzyl)-3-(4-fluorobenzamido)benzamide] | – | 1.44 ± 1.66 nM | 93.57% | 84.35% | 0.15 ± 0.06 nM | – |
| CCCN(CCC)Cc1ccccc1NC(=O)c1cccc(NC(=O)c2cccs2)c1 [Compound 4, N-(3-((2-((dipropylamino)methyl)phenyl)carbamoyl)phenyl)thiophene-2-carboxamide] | 122 ± 285 nM | – | 87.24% | 79.48% | – | – |
| CN(C)Cc1ccccc1NC(=O)c1cccc(NC(=O)c2cccs2)c1 [Compound 2, N-(3-((2-((dimethylamino)methyl)phenyl)carbamoyl)phenyl)thiophene-2-carboxamide] | – | – | 94.30% | 91.45% | 1910 ± 983 nM | – |
| O=C(NCc1ccccc1)c1cccc(NC(=O)c2cccs2)c1 [Compound 36] | – | – | 89.57% | 77.42% | – | 27.2% |
| CCN(CC)Cc1ccccc1CNC(=O)c1cccc(NC(=O)C2CCCCC2)c1 [Compound 10, 3-(cyclohexanecarboxamido)-N-(2-((diethylamino)methyl)benzyl)benzamide] | 122 ± 15.4 nM | – | 90.23% | 83.22% | – | – |
